According to PubChem BioAssay (NCI):
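Tested at 5 concentrations; 48 h exposure; 96-well plates; endpoints linearly interpolated, else capped at highest concentration. Abbreviation: GI50, concentration required for 50% inhibition of growth. TGI: total growth inhibition.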

Legend:
Test in all cases: inhibition of tumour cell growth, NCI panel, 48 h
[1] = system: M14 melanoma
[2] = system: MDA-MB-231 breast
[3] = system: MDA-MB-435
[4] = system: NCI-H522 lung
[5] = system: NCI/ADR-RES ovarian
[6] = system: OVCAR-4 ovarian
[7] = system: SK-MEL-2 melanoma
[8] = system: UACC-62 melanoma
[9] = system: A498 renal
[10] = system: BT-549 breast

Row | SMILES | TGI [1] [µM] | TGI [2] [µM] | TGI [3] [µM] | TGI [4] [µM] | TGI [5] [µM] | TGI [6] [µM] | TGI [7] [µM] | TGI [8] [µM] | TGI [9] [µM] | GI50 [10] [µM] | TGI [10] [µM] | GI50 [1] [µM] | GI50 [2] [µM] | GI50 [3] [µM] | GI50 [4] [µM] | GI50 [5] [µM] | GI50 [6] [µM] | GI50 [7] [µM] | GI50 [8] [µM] | GI50 [9] [µM]
1 | O=C(Nc1cccc(C(F)(F)F)c1)c1cc(Br)cc(Br)c1O | > 10 | > 10 | > 10 | 9.82 | 6.78 | > 10 | 5.07 | > 10 | – | – | – | – | – | – | – | – | – | – | – | –
2 | CCOC(=O)/N=c1/nc(N(C)C)ss1 | > 100 | – | – | > 100 | – | > 100 | > 100 | > 100 | > 100 | – | – | – | – | – | – | – | – | – | – | –
3 | NCP(=O)(O)OCC(=O)O | > 100 | – | – | > 100 | – | > 100 | > 100 | > 100 | > 100 | – | – | – | – | – | – | – | – | – | – | –
4 | NS(=O)(=O)c1ccc(NC(=O)COC(=O)c2cccc3c(=O)c4ccccc4[nH]c23)cc1 | > 100 | – | – | 43.5 | – | > 100 | 69.8 | 34.7 | 51.8 | – | – | – | – | – | – | – | – | – | – | –
5 | COc1ccc(/C=N/N=C(\[O-])c2ccncc2)cc1F.COc1ccc(/C=N\N=C(/[O-])c2ccncc2)cc1F.[Cu+2] | > 100 | > 100 | > 100 | 26.1 | 28.8 | 34.5 | 53.2 | 52.8 | – | 20.5 | 37.1 | 47.2 | 32.4 | 62.1 | 12.7 | 13.4 | 18.5 | 23 | 23.8 | –
6 | O=C(CC(=O)c1ccccc1)c1ccccc1 | 44.7 | > 100 | > 100 | > 100 | 44 | > 100 | > 100 | 77.5 | – | 9.37 | 34.3 | 14.1 | > 100 | 29.3 | 29.3 | 16.8 | 27.9 | 87 | 21.7 | –
7 | Cc1cc(O)c(C(c2ccncc2)c2c(O)cc(C)[nH]c2=O)c(=O)[nH]1 | > 100 | > 100 | > 100 | > 100 | > 100 | > 100 | – | > 100 | – | – | > 100 | – | – | – | – | – | – | – | – | –
8 | N#Cc1cccc(OCc2ccccc2COc2cccc(C#N)c2)c1 | > 100 | 47.5 | > 100 | > 100 | > 100 | > 100 | > 100 | 73 | – | 36.7 | 93.3 | 43.9 | 7.83 | 25.4 | 98.1 | 50.1 | 54.8 | > 100 | 18.3 | –
9 | COC(=O)C1CC(C(=O)OC)c2nc3cc(C)c(C)cc3nc21 (centres undefined) | > 100 | – | – | > 100 | – | > 100 | > 100 | > 100 | > 100 | – | – | – | – | – | – | – | – | – | – | –
10 | C#CCN(Cc1nc2cc(C(F)(F)F)ccc2nc1-c1ccccc1)c1ccc(F)c(F)c1 | > 100 | > 100 | > 100 | > 100 | > 100 | > 100 | – | > 100 | > 100 | 53.1 | > 100 | > 100 | 21.9 | 37.8 | 27.5 | 56.1 | > 100 | – | 44.5 | 39.9
11 | Cn1cc(NC(=O)c2cc(NC(=O)CCCCCCC(=O)Nc3cc(C(=O)Nc4cc(C(=O)NCCC(=N)N)n(C)c4)n(C)c3)cn2C)cc1C(=O)NCCC(=N)N | 33.9 | – | – | – | – | > 100 | – | 20.8 | 5.28 | – | – | – | – | – | – | – | – | – | – | –
12 | COc1ccc2c(c1)OCCC1=C2SCC2(C)CCN=C12 (centres undefined) | > 100 | – | – | > 100 | – | > 100 | – | > 100 | – | – | – | – | – | – | – | – | – | – | – | –
13 | CC1=C(C(=O)Nc2ccccc2)C(c2ccc(C(C)C)cc2)C(C(=O)Nc2ccccc2)=C(C)N1 | 55.9 | – | – | 45.4 | – | > 100 | 31.2 | 35 | > 72.3 | – | – | – | – | – | – | – | – | – | – | –
14 | Nc1ccc(C(=O)N/C(=C\c2cccc([N+](=O)[O-])c2)c2nc3c4c(ccc3[nH]2)C(=O)c2ccccc2C4=O)cc1 | > 100 | – | – | 71.2 | – | 43.4 | > 100 | > 100 | 57.7 | – | – | – | – | – | – | – | – | – | – | –
15 | O=c1c2c3c(sc2n2c(-c4ccc(Br)cc4)nnc2n1Cc1ccccc1)CCCC3 | – | 16.6 | 35.3 | – | 36 | 22.4 | 21.2 | 17.2 | 22.9 | 6.04 | 19.8 | – | 3.39 | 14.2 | – | 12.8 | 6.03 | 8.58 | 4.39 | 10.9
16 | COc1cc(-c2nn(-c3ccc(NC(=O)c4cc(Cl)cc(Cl)c4)cc3)cc2-c2ccncc2)ccc1Cl | > 100 | > 100 | > 100 | – | > 100 | > 100 | > 100 | > 100 | > 100 | > 100 | > 100 | 7.39 | 9.93 | > 100 | – | > 100 | > 100 | > 100 | 4.58 | > 100
17 | Cn1ccnc1C[N-]Cc1nccn1C.O=[N+]([O-])[O-].O=[N+]([O-])[O-].[Cu+2] | > 100 | – | – | > 100 | – | > 100 | – | > 100 | – | – | – | > 100 | – | – | > 100 | – | 2.49 | – | 25.8 | –
18 | C1C[OH+]CC[OH+]CC[OH+]CC[OH+]CC[OH+]CC[OH+]1.[Cl-].[Nb+5] | > 100 | – | – | > 100 | – | > 100 | > 100 | > 100 | > 100 | – | – | > 100 | – | – | > 100 | – | > 100 | > 100 | > 100 | > 100
19 | CCOC(=O)/C(C#N)=C/Nc1ccc(-c2nc3ccccc3[nH]2)cc1 | > 100 | 45.1 | > 100 | > 100 | 66.1 | > 100 | > 100 | 62.4 | – | 34.1 | 85.5 | 62.3 | 18.1 | 33.8 | 24 | 41.4 | 31.4 | 42.6 | 18.7 | –
20 | CC(C)(C)OC(=O)N1N=NC2C3OC(CC3=O)C21 (centres undefined) | > 100 | – | – | > 100 | – | – | > 100 | > 100 | > 100 | – | – | – | – | – | – | – | – | – | – | –
